# Legend:
# [1] = system: Pseudomonas aeruginosa; test: Minimum concentration required to reduce (potentiate) the MIC of levofloxacin of Pseudomonas aeruginosa by 8-folds; type: functional
# [2] = system: Pseudomonas aeruginosa; test: Tested for the minimum inhibitory concentration (MIC) against growth of PAM 1032, a strain of Pseudomonas aeruginosa; type: functional
Structure (SMILES),MIC [2] [µg/mL],MPC8 [1] [µg/mL]
NCCC[C@@H](N)C(=O)N[C@H](CCc1ccccc1)C(O)c1nc2ccccc2o1.O=C(O)C(F)(F)F.O=C(O)C(F)(F)F (some centres undefined),> 512,10
NCCC[C@@H](N)C(=O)N[C@H](CCc1ccccc1)C(O)c1nc2ccccc2[nH]1.O=C(O)C(F)(F)F.O=C(O)C(F)(F)F (some centres undefined),> 512,20
NCCC[C@@H](N)C(=O)N[C@H](CCc1ccccc1)C(O)c1nc2ccccc2s1.O=C(O)C(F)(F)F.O=C(O)C(F)(F)F (some centres undefined),512,20
NCCC[C@@H](N)C(=O)N[C@H](CCc1ccccc1)CSc1ccc(Cl)cc1.O=C(O)C(F)(F)F.O=C(O)C(F)(F)F,64,1.25
NCCC[C@@H](N)C(=O)N[C@H](CCc1ccccc1)C(=O)Nc1cnc2ccccc2c1,> 512,10
Cc1cc2nc(C(O)[C@@H](CCc3ccccc3)NCC(O)[C@H](N)CCCN)oc2cc1C.O=C(O)C(F)(F)F.O=C(O)C(F)(F)F (some centres undefined),128,1.25
NCCC[C@@H](N)C(=O)N[C@H](CCc1ccccc1)C(O)c1nc2cc(Cl)ccc2o1.O=C(O)C(F)(F)F.O=C(O)C(F)(F)F (some centres undefined),256,5
Cc1ccc(CCN(CCC(=O)Nc2cnc3ccccc3c2)C(=O)[C@H](N)CCCN)cc1.O=C(O)C(F)(F)F.O=C(O)C(F)(F)F,256,5

# Second part, led by results:
MIC [2] [µg/mL],Structure (SMILES),MPC8 [1] [µg/mL]
64,NCCC[C@@H](N)C(O)CN[C@H](CCc1ccccc1)c1nc(C(=O)Nc2cnc3ccccc3c2)co1.O=C(O)C(F)(F)F.O=C(O)C(F)(F)F (some centres undefined),5
128,Cc1cc2nc(C(O)[C@@H](CCc3ccccc3)NC(=O)[C@H](N)CCCN)oc2cc1C.O=C(O)C(F)(F)F.O=C(O)C(F)(F)F (some centres undefined),2.5
> 512,CC(C)CCN(CCC(=O)Nc1cnc2ccccc2c1)C(=O)[C@H](N)CCCN.O=C(O)C(F)(F)F.O=C(O)C(F)(F)F,10
16,NCCC[C@@H](N)C(=O)N[C@H](CCc1ccccc1)c1nc(C(=O)Nc2ccc3ccccc3c2)co1.O=C(O)C(F)(F)F.O=C(O)C(F)(F)F,2.5
128,NCCC[C@@H](N)C(=O)N[C@H](CCc1ccccc1)c1nc(C(=O)Nc2cnc3ccccc3c2)co1.O=C(O)C(F)(F)F.O=C(O)C(F)(F)F,5
128,NCCC[C@@H](N)C(O)CN[C@H](CCc1ccccc1)C(=O)Nc1cnc2ccccc2c1.O=C(O)C(F)(F)F.O=C(O)C(F)(F)F (some centres undefined),2.5
512,COc1ccc(CCN(CCC(=O)Nc2cnc3ccccc3c2)C(=O)[C@H](N)CCCN)cc1.O=C(O)C(F)(F)F.O=C(O)C(F)(F)F,10
> 512,NCCC[C@@H](N)C(=O)N(CCC(=O)Nc1cnc2ccccc2c1)CCc1ccccc1.O=C(O)C(F)(F)F.O=C(O)C(F)(F)F,10
128,NCCC[C@@H](N)C(=O)N[C@H](CCc1ccccc1)COc1ccc(Cl)cc1.O=C(O)C(F)(F)F.O=C(O)C(F)(F)F,5

# Reference: ChEMBL document CHEMBL1135223, “Peptidomimetics of efflux pump inhibitors potentiate the activity of levofloxacin in Pseudomonas aeruginosa” (2002)
